Test results taken from US20210283099A1, “CDC7 KINASE INHIBITORS AND USES THEREOF” (SLOAN-KETTERING INSTITUTE FOR CANCER RESEARCH, priority 2010, published 2021).

Tested on: HeLa cells
Assay: S phase checkpoint western blot analysis
Assay type: cell-based, human
Conditions: SDS-PAGE and western blot
Method: FIG. 15. […] HeLa cells were incubated in the presence of granaticin A or carrier control (DMSO) for the indicated times and whole cell extracts were subjected to SDS-PAGE and western blot analysis. Asyn=asynchronously growing HeLa cells. HU=HeLa cells exposed to hydroxyurea for the indicated time. HU was used as a control for DNA damaging agent that is known to […] the DNA damage checkpoint response. Again, we observed that Mcm2 mobility is shifted in the cells treated with granaticin A. MCM2 mobility is not affected by HU. Activation of the DNA damage/replication checkpoint correlates with ATM/ATR dependent phosphorylation of Chk1 at Ser345.

NC(=O)NO [HU, hydroxyurea, reference compound]
Mcm2 mobility: not affected
